Assay results reported in patent US6514997B2, “Antipicornaviral compounds and compositions, their pharmaceutical uses, and materials for their synthesis” (Agouron Pharmaceuticals, Inc., priority 1999, dated 2003).
Read-outs that look alike come from different tables or passages of the source.

How the values were obtained:
[1] = Cytotoxicity (CC50) in mock-infected H1-HeLa cells, XTT dye reduction; assay type: cell-based, human; details: human, H1-HeLa cells; for CC50: line of CVB2; for CC50 at 1 day: line of CVB3
Procedure, shortened: (§1)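 H1-HeLa cells mock-infected, read by XTT/PMS formazan at 450/650 nm.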

[2] = system: H1-HeLa cells; test: as above; assay type: cell-based, human
Procedure, shortened: as §1

[3] = system: coxsackievirus B5 (CVB5); test: Anticoxsackieviral cell culture assay (EC50), CVB5; assay type: cell-based; details: Enterovirus B
[4] = system: strains of human rhinovirus (HRV); test: Antirhinoviral H1-HeLa cell culture assay (XTT cell protection, EC50), other HRV strains; assay type: cell-based, human rhinovirus in H1-HeLa cells; details: read-out: EC50
Procedure, shortened: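 H1-HeLa cells infected, or mock-infected, were incubated with compounds for two days. Cell protection measured by XTT/PMS formazan absorbance at 450/650 nm; TI taken as CC50 divided by EC50.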

[5] = system: Coxsackievirus type B3 (CVB3); test: Anticoxsackieviral cell culture assay (XTT, EC50), CVB3; assay type: cell-based, coxsackievirus B3 in H1-HeLa cells
Procedure: (§2) Anticoxsackieviral Cell Culture Assay:
(§3) Coxsackievirus types A-21 (CAV-21) and B3 (CVB3) were purchased from American Type Culture Collection (ATCC, Rockville, Md.). Virus stocks were propagated and antiviral assays were performed in H1-HeLa cells (ATCC). Cells were grown in minimal essential medium with 10% fetal bovine serum (Life Technologies, Gaithersburg, Md.). The ability of the compounds of this invention to protect cells against either CAV-21 or CVB3 infection was measured by the XTT dye reduction method. This method is described in Weislow et al., J. Natl. Cancer Inst. (1989), vol. 81, 577-586. H1-HeLa cells were infected with CAV-21 or CVB3 at a multiplicity of infection (m.o.i.) of 0.025 or 0.075, respectively, or mock-infected with medium only. H1-HeLa cells were plated at 4×10^4 cells per well in a 96-well plate and incubated with appropriate concentrations of the test compound. One day (CVB3) or two days (CAV-21) later, XTT/PMS was added to test plates and the amount of formazan produced was quantified spectrophotometrically at 450/650 nm. […] The therapeutic index (TI) was calculated by dividing the CC50 by the EC50.

[6] = system: Coxsackievirus type A-21 (CAV-21); test: Anticoxsackieviral cell culture assay (XTT, EC50), CAV-21; assay type: cell-based, coxsackievirus A-21 in H1-HeLa cells; details: Coxsackievirus
Procedure: as §2, §3

[7] = system: HRV-14; test: Antirhinoviral H1-HeLa cell culture assay (XTT cell protection, EC50), HRV-14; assay type: cell-based, human rhinovirus (HRV) serotype-14 in H1-HeLa cells; details: Rhinovirus B, HRV14, H1-HeLa
Procedure, shortened: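 H1-HeLa cells were infected with HRV-14 at m.o.i. 0.13, or mock-infected, and incubated with compound for two days. Cell protection was read by XTT/PMS formazan absorbance at 450/650 nm to give EC50. CC50 came from mock-infected cells, and TI = CC50/EC50.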

[8] = system: coxsackievirus B2 (CVB2); test: Anticoxsackieviral cell culture assay (EC50), CVB2; assay type: cell-based; details: Enterovirus B
[9] = system: echovirus 9 (ECHO-9); test: Anti-echoviral cell culture assay (EC50), ECHO-9; assay type: cell-based; details: Enterovirus B
[10] = uninfected (mock-infected), line of CAV-21
[11] = Human rhinovirus sp., H1-HeLa, HRV-Hanks
[12] = Human rhinovirus sp., HRV3, H1-HeLa, HRV-3
[13] = Human rhinovirus sp., HRV9, H1-HeLa, HRV-9
[14] = Human rhinovirus sp., HRV10, H1-HeLa, HRV-10
[15] = Human rhinovirus sp., HRV11, H1-HeLa, HRV-11
[16] = Human rhinovirus sp., HRV13, H1-HeLa, HRV-13
[17] = Human rhinovirus sp., HRV16, H1-HeLa, HRV-16
[18] = Human rhinovirus sp., HRV19, H1-HeLa, HRV-19
[19] = Human rhinovirus sp., HRV25, H1-HeLa, HRV-25
[20] = Human rhinovirus sp., HRV39, H1-HeLa, HRV-39
[21] = Human rhinovirus sp., HRV78, H1-HeLa, HRV-78
[22] = Human rhinovirus sp., HRV87, H1-HeLa, HRV-87

CCOC(=O)/C=C/[C@H](C[C@@H]1CCNC1=O)NC(=O)[C@H](CC)n1cccc(NC(=O)c2cc(C)on2)c1=O [Compound 26, trans-(2′S,3″″S,4S)-4-(2′-{3″-[(5′″-Methylisoxazole-3′″-carbonyl)amino]-2″-oxo-2″H-pyridin-1″-yl}butyrylamino)-5-(2″″-oxopyrrolidin-3″″-yl)pent-2-enoic Acid Ethyl Ester]
CC50 at 2 days ([1]; mock-infected, line of HRV-14): > 10 µM
CC50 at 2 days [1, 10]: > 10 µM
CC50 ([1]; uninfected (mock-infected)): > 10 µM
CC50 at 1 day ([1]; uninfected (mock-infected)): > 10 µM
CC50 ([2]; line of CVB5): > 10 µM
CC50 ([2]; line of HRV-1A): > 10 µM
CC50 ([2]; line of HRV-2): > 10 µM
CC50 ([2]; line of HRV-3): > 10 µM
CC50 ([2]; line of HRV-9): > 10 µM
CC50 ([2]; line of HRV-10): > 10 µM
CC50 ([2]; line of HRV-11): > 10 µM
CC50 ([2]; line of HRV-13): > 10 µM
CC50 ([2]; line of HRV-16): > 10 µM
CC50 ([2]; line of HRV-19): > 10 µM
CC50 ([2]; line of HRV-23): > 10 µM
CC50 ([2]; line of HRV-25): > 10 µM
CC50 ([2]; line of HRV-39): > 10 µM
CC50 ([2]; line of HRV-78): > 10 µM
CC50 ([2]; line of HRV-87): > 10 µM
CC50 ([2]; line of HRV-Hanks): > 10 µM
EC50 [3]: 0.018 µM
EC50 ([4]; H1-HeLa, HRV-1A): 0.014 µM
EC50 ([4]; H1-HeLa, HRV-2): 0.016 µM
EC50 ([4]; H1-HeLa, HRV-23): 0.04 µM
EC50 [4, 11]: 0.054 µM
EC50 [4, 12]: 0.029 µM
EC50 [4, 13]: 0.045 µM
EC50 [4, 14]: 0.027 µM
EC50 [4, 15]: 0.004 µM
EC50 [4, 16]: 0.058 µM
EC50 [4, 17]: 0.05 µM
EC50 [4, 18]: 0.065 µM
EC50 [4, 19]: 0.102 µM
EC50 [4, 20]: 0.047 µM
EC50 [4, 21]: 0.057 µM
EC50 [4, 22]: 0.021 µM
EC50 [5]: 0.016 µM
EC50 [6]: 0.121 µM
EC50 [7]: 0.055 µM
EC50 [8]: 0.055 µM
EC50 [9]: 0.015 µM

C#CC[C@@H](C(=O)N[C@H](/C=C/C(=O)OCC)C[C@@H]1CCNC1=O)n1cccc(NC(=O)c2cc(C)on2)c1=O [Compound 31, trans-(2′S,3″″S,4S)-4-(2′-{3″-[(5′″-Methyl-isoxazole-3′″-carbonyl)amino]-2″-oxo-2″H-pyridin-1″-yl}pent-4′-ynoyl-amino)-5-(2″″-oxopyrrolidin-3″″-yl)pent-2-enoic Acid Ethyl Ester]
CC50 at 2 days ([1]; mock-infected, line of HRV-14): > 10 µM
CC50 at 2 days [1, 10]: > 10 µM
CC50 ([1]; uninfected (mock-infected)): > 10 µM
CC50 at 1 day ([1]; uninfected (mock-infected)): > 10 µM
CC50 ([2]; line of CVB5): > 10 µM
CC50 ([2]; line of HRV-1A): > 10 µM
CC50 ([2]; line of HRV-2): > 10 µM
CC50 ([2]; line of HRV-3): > 10 µM
CC50 ([2]; line of HRV-9): > 10 µM
CC50 ([2]; line of HRV-10): > 10 µM
CC50 ([2]; line of HRV-11): > 10 µM
CC50 ([2]; line of HRV-13): > 10 µM
CC50 ([2]; line of HRV-16): > 10 µM
CC50 ([2]; line of HRV-19): > 10 µM
CC50 ([2]; line of HRV-23): > 10 µM
CC50 ([2]; line of HRV-25): > 10 µM
CC50 ([2]; line of HRV-39): > 10 µM
CC50 ([2]; line of HRV-78): > 10 µM
CC50 ([2]; line of HRV-87): > 10 µM
CC50 ([2]; line of HRV-Hanks): > 10 µM
EC50 [3]: 0.047 µM
EC50 ([4]; H1-HeLa, HRV-1A): 0.036 µM
EC50 ([4]; H1-HeLa, HRV-2): 0.013 µM
EC50 ([4]; H1-HeLa, HRV-23): 0.042 µM
EC50 [4, 11]: 0.049 µM
EC50 [4, 12]: 0.021 µM
EC50 [4, 13]: 0.044 µM
EC50 [4, 14]: 0.048 µM
EC50 [4, 15]: 0.005 µM
EC50 [4, 16]: 0.06 µM
EC50 [4, 17]: 0.038 µM
EC50 [4, 18]: 0.05 µM
EC50 [4, 19]: 0.087 µM
EC50 [4, 20]: 0.043 µM
EC50 [4, 21]: 0.061 µM
EC50 [4, 22]: 0.021 µM
EC50 [5]: 0.024 µM
EC50 [6]: 0.161 µM
EC50 [7]: 0.022 µM
EC50 [8]: 0.057 µM
EC50 [9]: 0.012 µM
